For this experiment, the target named is T1, CETP (Homo sapiens, UniProt P11597).
T1 sequence (P11597 18-493): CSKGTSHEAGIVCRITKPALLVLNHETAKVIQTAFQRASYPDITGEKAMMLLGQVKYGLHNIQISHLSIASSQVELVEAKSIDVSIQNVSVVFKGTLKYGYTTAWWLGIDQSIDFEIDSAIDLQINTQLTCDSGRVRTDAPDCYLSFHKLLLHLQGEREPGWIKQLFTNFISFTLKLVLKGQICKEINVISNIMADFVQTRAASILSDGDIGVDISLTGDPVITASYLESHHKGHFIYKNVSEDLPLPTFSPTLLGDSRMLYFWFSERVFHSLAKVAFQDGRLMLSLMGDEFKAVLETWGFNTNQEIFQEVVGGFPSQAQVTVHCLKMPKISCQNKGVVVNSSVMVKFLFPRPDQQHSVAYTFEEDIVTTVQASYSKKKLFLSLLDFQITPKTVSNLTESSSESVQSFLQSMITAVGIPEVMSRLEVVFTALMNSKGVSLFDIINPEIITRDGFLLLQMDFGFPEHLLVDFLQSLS
The experiment in a line: In vitro CETP activity inhibitory effect in whole plasma. The settings on record: plasma from healthy subjects containing [3H]CE-HDL3, incubated 4 hours at 37° C.; read-out: CETP activity inhibition in whole plasma IC50. Also noted: Plasma containing [^3H]CE-HDL3 (600,000 dpm/ml) was prepared by adding donor lipoprotein obtained in the above (1) to plasma from healthy subjects; from tissue; host or cells: whole plasma of healthy subjects. The class given is biochemical. As for the experimental part:
The fraction thus obtained was dialyzed against a PBS solution [10 mM Na2HPO4/10 mM NaH2PO4/0.15 M NaCl/1 mM EDTA (pH 7.4)]. Then, tritium-labeled cholesterol (10 nM) (50.3 Ci/mM) was dissolved in 95% ethanol and added gradually to the above HDL3 fraction under stirring. The solution was incubated for 18 hours at 37° C. […] After incubation, KBr was added and specific gravity was adjusted to d=1.21 g/ml. […] A sample solution was prepared using a 1:1 solution of N-methylpyrrolidone and polyethyleneglycol 400 as a solvent. […] Based on the inhibition rate (%) of CETP activity, IC50 value of each sample was calculated.
Take `CC(C)(C)C(=O)Nc1ccccc1SSc1ccccc1NC(=O)C(C)(C)C` [Example 1, bis-[2-(pivaloylamino)phenyl]disulfide]: the IC50 was found to be 20 µM.

As for `CC(C)C(=O)Nc1ccccc1SSc1ccccc1NC(=O)C(C)C` [Example 1-1], the IC50 worked out at 41 µM.

Turning to `CCCCC(=O)Nc1ccccc1SSc1ccccc1NC(=O)CCCC` [Example 1-2], the IC50 came to 25 µM.

`O=C(Nc1ccccc1SSc1ccccc1NC(=O)C1CCCCC1)C1CCCCC1` [Example 1-6]: the IC50 amounted to 22 µM.

For the compound `O=C(Nc1ccccc1SSc1ccccc1NC(=O)c1ccncc1)c1ccncc1` [Example 1-7], the IC50 was 24 µM.

As for `CCCCC(=O)Nc1ccccc1SSc1ccccc1NC(=O)CCCC` [Example 1-8], the IC50 is 21 µM.

Regarding `O=C(Nc1ccccc1SSc1ccccc1NC(=O)C12CC3CC(CC(C3)C1)C2)C12CC3CC(CC(C3)C1)C2` [Example 1-12], the IC50 is 12 µM.

With `CC(C)(C)C1CCC(C(=O)Nc2ccccc2SSc2ccccc2NC(=O)C2CCC(C(C)(C)C)CC2)CC1` (centres unmarked) [Example 1-13], the IC50 is 18 µM.

Consider `O=C(Nc1ccccc1SSc1ccccc1NC(=O)c1ccccc1)c1ccccc1` [Example 3], for which the IC50 came out at 101 µM.

For the compound `O=C(Nc1ccccc1SSc1ccccc1NC(=O)c1cccs1)c1cccs1` [Example 4], the IC50 came out at 175 µM.

In the case of `CCCC(CCC)C(=O)Nc1ccccc1SSc1ccccc1NC(=O)C(CCC)CCC` [Example 5], the IC50 amounted to 3 µM.

As to `CC1(C(=O)Nc2ccccc2SSc2ccccc2NC(=O)C2(C)CCCCC2)CCCCC1` [Example 6], the IC50 turned out to be 5 µM.

Turning to `CC(C)CCC1(C(=O)Nc2ccccc2SSc2ccccc2NC(=O)C2(CCC(C)C)CCCC2)CCCC1` [Example 7], the IC50 was found to be 2 µM.

As to `CC(C)(C)C(=O)Nc1ccccc1S` [Example 9, N-(2-mercaptophenyl)-2,2-dimethylpropioneamide], the IC50 came to 99 µM.

In the case of `CC1(C(=O)Nc2ccccc2S)CCCCC1` [Example 12], the IC50 was found to be 17 µM.

Take `CC(C)CCC1(C(=O)Nc2ccccc2S)CCCC1` [Example 13]: the IC50 came to 5 µM.

Take `CCC1(C(=O)Nc2ccccc2S)CCCCC1` [Example 15]: the IC50 worked out at 12 µM.

As to `CCCC1(C(=O)Nc2ccccc2S)CCCCC1` [Example 16], the IC50 was 8 µM.

In the case of `CCCCC1(C(=O)Nc2ccccc2S)CCCCC1` [Example 17], the IC50 was determined as 8 µM.

As for `CC(C)CC1(C(=O)Nc2ccccc2S)CCCCC1` [Example 18, N-(2-mercaptophenyl)-1-isobutylcyclohexanecarboxamide], the IC50 was 6 µM.

As for `COc1ccc(S)c(NC(=O)C2(C)CCCCC2)c1` [Example 19, N-(2-mercapto-5-methoxyphenyl)-1-methylcyclohexanecarboxamide], the IC50 worked out at 179 µM.

`CC1(C(=O)Nc2cc(F)ccc2S)CCCCC1` [Example 19-1]: the IC50 was 19 µM.

In the case of `Cc1ccc(S)c(NC(=O)C2(C)CCCCC2)c1` [Example 19-2], the IC50 is 33 µM.

Consider `CC1(C(=O)Nc2cc(F)c(F)cc2S)CCCCC1` [Example 19-5], for which the IC50 came out at 17 µM.

On to `CC1(C(=O)Nc2ccc(F)cc2S)CCCCC1` [Example 19-6], for which the IC50 was 18 µM.

`CC(C)CCC1(C(=O)Nc2cc(Cl)c(Cl)cc2S)CCCCC1` [Example 20]: the IC50 is 16 µM.

As for `CC(C)CCC1(C(=O)Nc2cc(Cl)c(Cl)cc2S)CCCC1` [Example 21], the half-maximal inhibitory concentration (IC50) worked out at 9 µM.

For the compound `CC(C)(C)C(=O)Nc1ccccc1SC(=O)C1CCCCC1` [Example 25-4], the IC50 was 32 µM.

Consider `CC(C)(C)C(=O)Nc1ccccc1SC(=O)Cc1ccccc1[N+](=O)[O-]` [Example 25-7], for which the IC50 was determined as 46 µM.

As for `CC(C)(C)C(=O)Nc1ccccc1SC(=O)Cc1cccc([N+](=O)[O-])c1` [Example 25-8], the IC50 was determined as 25 µM.

For the compound `CC(C)(C)C(=O)Nc1ccccc1SC(=O)CCCc1ccccc1` [Example 25-12], the IC50 stood at 33 µM.

For the compound `CC(C)(C)C(=O)Nc1ccccc1CC(=O)Sc1ccccc1NC(=O)C(C)(C)C` [Example 25-13], the 50% inhibitory concentration (IC50) was found to be 28 µM.

As for `CC(C)(C)C(=O)Nc1ccccc1SC(=O)CCc1ccccc1` [Example 25-14], the IC50 was 30 µM.

Take `CC1(C(=O)Nc2ccccc2SC(=O)CC2CCCCC2)CCCCC1` [Example 25-16]: the IC50 amounted to 41 µM.

For the compound `CC1(C(=O)Nc2ccccc2SC(=O)Cc2ccccc2)CCCCC1` [Example 25-17], the IC50 was determined as 23 µM.

`CC(C)(C)C(=O)Nc1ccccc1CC(=O)Sc1ccccc1NC(=O)C1(C)CCCCC1` [Example 25-18]: the IC50 turned out to be 19 µM.

As for `CC1(C(=O)Nc2ccccc2CC(=O)Sc2ccccc2NC(=O)C2(C)CCCCC2)CCCCC1` [Example 25-19], the concentration for half-maximal inhibition (IC50) was 22 µM.

`CC(C)(C)C(=O)Nc1ccccc1SC(=O)Cc1ccccc1NC(=O)C1(C)CCCCC1` [Example 25-20]: the IC50 was determined as 48 µM.

As to `CC1(C(=O)Nc2ccccc2SC(=O)Cc2ccc(Cl)cc2)CCCCC1` [Example 25-21], the IC50 came out at 28 µM.

Turning to `CC1(C(=O)Nc2ccccc2SC(=O)Cc2cccc(Cl)c2)CCCCC1` [Example 25-22], the 50% inhibitory concentration (IC50) amounted to 27 µM.

For the compound `CC1(C(=O)Nc2ccccc2SC(=O)Cc2ccccc2Cl)CCCCC1` [Example 25-23], the IC50 turned out to be 25 µM.

For `CC1(C(=O)Nc2ccccc2SC(=O)Cc2ccc3ccccc3c2)CCCCC1` [Example 25-25], the IC50 amounted to 24 µM.

Regarding `CC1(C(=O)Nc2ccccc2SC(=O)Cc2ccc(-c3ccccc3)cc2)CCCCC1` [Example 25-26], the IC50 was 22 µM.

On to `CC1(C(=O)Nc2ccccc2SC(=O)c2cccnc2)CCCCC1` [Example 25-27], for which the IC50 stood at 21 µM.

Consider `CC1(C(=O)Nc2ccccc2SC(=O)Cc2cccs2)CCCCC1` [Example 25-28], for which the IC50 worked out at 21 µM.

Take `CC1(C(=O)Nc2cccc(CC(=O)Sc3ccccc3NC(=O)C3(C)CCCCC3)c2)CCCCC1` [Example 25-30]: the IC50 was 21 µM.

Consider `CC(=O)Nc1cccc(CC(=O)Sc2ccccc2NC(=O)C2(C)CCCCC2)c1` [Example 25-31], for which the IC50 was 21 µM.

On to `CC(=O)N[C@@H](Cc1ccccc1)C(=O)Sc1ccccc1NC(=O)C1(C)CCCCC1` [Example 25-32], for which the IC50 turned out to be 20 µM.

`CC(=O)NCC(=O)Sc1ccccc1NC(=O)C1(C)CCCCC1` [Example 25-33]: the IC50 worked out at 18 µM.

Turning to `CC(C)(C)OC(=O)Nc1ccccc1CC(=O)Sc1ccccc1NC(=O)C1(C)CCCCC1` [Example 25-34], the IC50 was 21 µM.

As to `CC(=O)N[C@@H](CC(C)C)C(=O)Sc1ccccc1NC(=O)C1(C)CCCCC1` [Example 25-35], the IC50 was determined as 27 µM.

Consider `CC(=O)N[C@@H](Cc1ccc(O)cc1)C(=O)Sc1ccccc1NC(=O)C1(C)CCCCC1` [Example 25-36], for which the IC50 is 30 µM.

As for `CC(=O)N1CCC[C@H]1C(=O)Sc1ccccc1NC(=O)C1(C)CCCCC1` [Example 25-37], the IC50 came to 24 µM.

As to `CC(=O)N[C@@H](C(=O)Sc1ccccc1NC(=O)C1(C)CCCCC1)c1ccccc1` [Example 25-38], the IC50 came to 20 µM.

As for `CC(=O)N[C@H](C(=O)Sc1ccccc1NC(=O)C1(C)CCCCC1)c1ccccc1` [Example 25-39], the IC50 worked out at 22 µM.

As to `CC1(C(=O)Nc2ccccc2SC(=O)[C@H](NC(=O)c2ccccc2)c2ccccc2)CCCCC1` [Example 25-40], the concentration for half-maximal inhibition (IC50) was 23 µM.

`CC1(C(=O)Nc2ccccc2SC(=O)[C@H](NC(=O)C2(C)CCCCC2)c2ccccc2)CCCCC1` [Example 25-41]: the IC50 came to 26 µM.

In the case of `CC1(C(=O)Nc2ccccc2SC(=O)[C@H](N)c2ccccc2)CCCCC1` [Example 25-42], the IC50 came to 22 µM.

For `CC(=O)N[C@@H](C)C(=O)Sc1ccccc1NC(=O)C1(CCC(C)C)CCCCC1` [Example 25-44], the IC50 is 9 µM.

As to `CC(C)CCC1(C(=O)Nc2ccccc2SC(=O)C(c2ccccc2)c2ccccc2)CCCCC1` [Example 25-47], the IC50 was found to be 29 µM.

Turning to `CC(C)CCC1(C(=O)Nc2ccccc2SC(=O)c2ccc(C(=O)Sc3ccccc3NC(=O)C3(CCC(C)C)CCCCC3)cc2)CCCCC1` [Example 25-48], the IC50 came to 23 µM.

Regarding `CC(C)CCC1(C(=O)Nc2ccccc2SC(=O)[C@@H]2CCC(=O)N2)CCCCC1` [Example 25-54], the IC50 was found to be 6 µM.

Take `CC(C)CCC1(C(=O)Nc2ccccc2SC(=O)[C@@H]2CCCN2C(=O)c2ccccc2)CCCCC1` [Example 25-55]: the half-inhibitory concentration (IC50) is 10 µM.

Turning to `CC(C)CCC1(C(=O)Nc2ccccc2SC(=O)c2cccnc2)CCCC1` [Example 25-60], the IC50 is 5 µM.

Take `CC(C)CCC1(C(=O)Nc2ccccc2SC(=O)C2CCCCC2)CCCC1` [Example 25-64]: the half-inhibitory concentration (IC50) amounted to 20 µM.

The values are drawn from patent US9000045B2, “CETP activity inhibitors” (Japan Tobacco Inc., priority 1997, dated 2015).
